Data set [1] concerns the target T1, cell-surface VLA-4 (α4β1 integrin) on Ramos cells binding to immobilized VCAM-1 (Homo sapiens, UniProt P05556+P13612).
T1 construct: Ramos cells bearing cell-surface VLA-4; endogenous in cells; host or cells: Ramos cells (VLA-4); VCAM-1 partner made in CHO cells
The data set is described as follows: Ramos (VLA-4)/VCAM-1 Cell-Based Screening Assay (cell adhesion). Particulars: Calcein-AM labeled Ramos cells, VCAM-1 coated plates. The protocol: Ramos (VLA-4)/VCAM-1 Cell-Based Screening Assay Protocol
Soluble recombinant human VCAM-1 (mixture of 5- and 7-Ig domain) was purified from CHO cell culture media by immunoaffinity chromatography and maintained in a solution containing 0.1 M Tris-glycine (pH 7.5), 0.1 M NaCl, 5 mM EDTA, 1 mM PMSF, […] NaN3 and 10 μg/mL leupeptin. Calcein-AM was purchased from Molecular Probes Inc.
VLA-4 (α4β1 integrin) antagonist activity, defined as ability to compete with cell-surface VLA-4 for binding to immobilized VCAM-1, was quantitated using a Ramos-VCAM-1 cell adhesion assay. Ramos cells bearing cell-surface VLA-4, were labeled with a fluorescent dye (Calcein-AM) and allowed to bind VCAM-1 in the presence or absence of test compounds. A reduction in fluorescence intensity associated with adherent cells (% inhibition) reflected competitive inhibition of VLA-4 mediated cell adhesion by the test compound.
Initially, this entailed coating 96 well plates (Nunc Maxisorp) with recombinant human VCAM-1 (100 ng in 100 μl PBS), sealing each plate and allowing the plates to stand at 4° C. for ≈18 hr. The VCAM-coated plates were subsequently washed twice with 0.05% Tween-20 in PBS, and then blocked for 1 hr (room temperature) with 200 μl of Blocking Buffer (1% BSA/0.02% thimerosal) to reduce non-specific binding. Following the incubation with Blocking Buffer, plates were inverted, blotted and the remaining buffer aspirated. Each plate was then washed with 300 μl PBS, inverted and the remaining PBS aspirated.
Test compounds were dissolved in 100% DMSO and then diluted 1:25 in VCAM Cell Adhesion Assay Buffer (4 mM CaCl2, 4 mM MgCl2 in 50 mM TRIS-HCl, pH 7.5) (final DMSO=4%). A series of eight 1:4 dilutions were performed for each compound (general concentration range of 1 nM-12,500 nM). 100 μl/well of each dilution was added to the VCAM-coated plates, followed by 100 μl of Ramos cells (200,000 cells/well in 1% BSA/PBS). Plates containing test compounds and Ramos cells were allowed to incubate for 45 min at room temperature, after which 165 μl/well PBS was added. Plates were inverted to remove non-adherent cells, blotted and 300 μL/well PBS added. Plates were again inverted, blotted and the remaining buffer gently aspirated. 100 μl Lysis Buffer (0.1% SDS in 50 mM TRIS-HCl, pH 8.5) was added to each well and agitated for 2 min on a rotary shaking platform. The plates were then read for fluorescence intensity on a Cytofluor 2300 (Millipore) fluorecence measurement system (excitation=485 nm, emission=530 nm).
The results are provided in the following Table II (A=IC50<100 nM, B=IC50<10000 nM, C=IC50<5,000 nM): […]

T1 sequence (P13612 34-1032): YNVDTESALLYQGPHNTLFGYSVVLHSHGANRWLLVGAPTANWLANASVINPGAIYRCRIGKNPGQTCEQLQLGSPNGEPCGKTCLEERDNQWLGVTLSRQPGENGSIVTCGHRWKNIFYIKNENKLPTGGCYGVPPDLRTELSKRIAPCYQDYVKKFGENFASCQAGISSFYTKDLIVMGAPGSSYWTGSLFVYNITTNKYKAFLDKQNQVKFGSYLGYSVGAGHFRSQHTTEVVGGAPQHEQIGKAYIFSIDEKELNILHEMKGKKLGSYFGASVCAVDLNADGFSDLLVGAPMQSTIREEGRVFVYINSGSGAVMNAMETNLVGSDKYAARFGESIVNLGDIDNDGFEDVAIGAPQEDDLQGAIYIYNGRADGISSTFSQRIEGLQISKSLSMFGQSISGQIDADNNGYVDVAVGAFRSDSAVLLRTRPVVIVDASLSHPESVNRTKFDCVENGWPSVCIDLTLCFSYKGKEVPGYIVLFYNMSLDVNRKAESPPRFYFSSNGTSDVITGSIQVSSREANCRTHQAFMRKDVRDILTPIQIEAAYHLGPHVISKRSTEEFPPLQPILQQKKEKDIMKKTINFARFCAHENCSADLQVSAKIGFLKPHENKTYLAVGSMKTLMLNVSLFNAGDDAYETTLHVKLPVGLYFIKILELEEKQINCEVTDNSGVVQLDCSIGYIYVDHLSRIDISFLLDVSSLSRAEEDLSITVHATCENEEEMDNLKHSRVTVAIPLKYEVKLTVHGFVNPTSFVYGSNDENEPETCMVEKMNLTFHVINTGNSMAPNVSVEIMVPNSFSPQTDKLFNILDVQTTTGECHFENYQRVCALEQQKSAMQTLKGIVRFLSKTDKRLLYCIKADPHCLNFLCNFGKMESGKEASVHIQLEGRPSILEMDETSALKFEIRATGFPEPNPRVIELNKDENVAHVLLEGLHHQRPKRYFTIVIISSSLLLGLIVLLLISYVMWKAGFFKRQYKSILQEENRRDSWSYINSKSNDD
T1 sequence (P05556 21-798): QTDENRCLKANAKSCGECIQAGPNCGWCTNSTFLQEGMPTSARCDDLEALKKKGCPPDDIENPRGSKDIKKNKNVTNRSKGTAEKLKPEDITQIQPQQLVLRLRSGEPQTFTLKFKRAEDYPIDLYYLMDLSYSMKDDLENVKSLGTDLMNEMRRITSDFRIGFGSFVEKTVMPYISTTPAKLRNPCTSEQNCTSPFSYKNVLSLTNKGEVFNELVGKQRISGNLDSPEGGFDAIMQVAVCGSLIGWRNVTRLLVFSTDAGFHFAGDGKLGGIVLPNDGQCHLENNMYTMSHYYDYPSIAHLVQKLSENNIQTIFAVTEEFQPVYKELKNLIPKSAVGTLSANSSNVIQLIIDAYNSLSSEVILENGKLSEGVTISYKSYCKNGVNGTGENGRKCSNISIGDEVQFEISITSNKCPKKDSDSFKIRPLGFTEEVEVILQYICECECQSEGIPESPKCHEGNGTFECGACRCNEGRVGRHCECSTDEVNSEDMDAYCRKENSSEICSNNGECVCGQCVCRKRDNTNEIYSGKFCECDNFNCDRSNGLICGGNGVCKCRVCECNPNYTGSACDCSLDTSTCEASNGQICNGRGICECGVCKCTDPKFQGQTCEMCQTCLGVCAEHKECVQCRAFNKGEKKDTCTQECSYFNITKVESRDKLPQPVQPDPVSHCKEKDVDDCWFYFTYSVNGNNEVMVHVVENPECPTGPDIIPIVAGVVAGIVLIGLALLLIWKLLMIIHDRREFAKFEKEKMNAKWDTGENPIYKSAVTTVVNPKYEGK

In general, IC50 refers to the concentration that inhibits the measured activity by half. As to `Cc1ccn(C)c(=O)c1-c1ccc(C[C@H](NC(=O)c2c(Cl)cccc2Cl)C(=O)O)cc1` [Example 31, N-[(2,6-dichlorophenyl)carbonyl]-4-(1,4-dimethyl-2-oxo-3-pyridinyl)-L-phenylalanine], the half-maximal inhibitory concentration (IC50) in data set [1] was less than 10 µM.

For `Cc1cc(C(F)(F)F)c(-c2ccc(C[C@H](NC(=O)c3c(Cl)cccc3Cl)C(=O)O)cc2)c(=O)n1C` [Example 33, N-[(2,6-dichlorophenyl)carbonyl]-4-[1,6-dimethyl-4-(trifluoromethyl)-2-oxo-3-pyridinyl]-L-phenylalanine], the IC50 in data set [1] was less than 0.1 µM. For orientation: melting point means the temperature of the solid-liquid transition. On to `COCCC1(C(=O)N[C@@H](Cc2ccc(-c3c(C(F)(F)F)cc(C)n(C)c3=O)cc2)C(=O)O)CCCC1` [Example 37, N-[[1-(2-methoxyethyl)cyclopentyl]carbonyl]-4-[1,6-dimethyl-4-(trifluoromethyl)-2-oxo-3-pyridinyl]-L-phenylalanine], for which the melting point fell in the range of 181 to 183 °C. Moreover, the IC50 in data set [1] is less than 10 µM. In the same order, the values of `Cc1cccc(Cl)c1C(=O)N[C@@H](Cc1ccc(-c2c(C(F)(F)F)cc(C)n(C)c2=O)cc1)C(=O)O` [Example 36, N-[(2-chloro-6-methylphenyl)carbonyl]-4-[1,6-dimethyl-4-(trifluoromethyl)-2-oxo-3-pyridinyl]-L-phenylalanine] are 220 to 223 °C and less than 0.1 µM. For the compound `Cc1cccc(C(C)C)c1C(=O)N[C@@H](Cc1ccc(-c2c(C(F)(F)F)cc(C)n(C)c2=O)cc1)C(=O)O` [Example 35, N-[(2-(1-methylethyl)-6-methylphenyl)carbonyl]-4-[1,6-dimethyl-4-(trifluoromethyl)-2-oxo-3-pyridinyl]-L-phenylalanine], the IC50 in data set [1] is less than 10 µM. On to `Cc1cccc(Cl)c1C(=O)N[C@@H](Cc1ccc(-c2cccn(C)c2=O)cc1)C(=O)O` [Example 30, N-[(2-chloro-6-methylphenyl)carbonyl]-4-(1-methyl-2-oxo-3-pyridinyl)-L-phenylalanine], for which the melting point is 204 to 210 °C. For the same compound, the IC50 in data set [1] was less than 10 µM.

On to `Cc1cccc(Cl)c1C(=O)N[C@@H](Cc1ccc(-c2c(C)ccn(C)c2=O)cc1)C(=O)O` [Example 32, N-[(2-chloro-6-methylphenyl)carbonyl]-4-(1,4-dimethyl-2-oxo-3-pyridinyl)-L-phenylalanine], for which the IC50 in data set [1] was less than 10 µM. In turn, `CCc1cccc(C)c1C(=O)N[C@@H](Cc1ccc(-c2c(C(F)(F)F)cc(C)n(C)c2=O)cc1)C(=O)O` [Example 34, N-[(2-ethyl-6-methylphenyl)carbonyl]-4-[1,6-dimethyl-4-(trifluoromethyl)-2-oxo-3-pyridinyl]-L-phenylalanine] displayed a melting point of 219 to 221 °C. The 50% inhibitory concentration (IC50) in data set [1] was less than 10 µM.

(Values after patent publication US6916933B2, “4-pyridinyl-n-acyl-l-phenylalanines” (Hoffman-La Roche Inc., priority 1999, dated 2005).)
